Reference: US20200216439A1, “HETERO-1,5,6,7-TETRAHYDRO-4H-INDOL-4-ONES” (BAYER PHARMA AKTIENGESELLSCHAFT, priority 2015, published 2020)

target: T1, catalytic domain of human Bub1 (amino acids 704-1085) (Homo sapiens, UniProt O43683); experiment: Bub1 kinase assay (TR-FRET); type: biochemical; conditions: not given
T1 construct: catalytic domain of human Bub1 (amino acids 704-1085); His6 (N); made in house; host or cells: Hi5 insect cells
Procedure, shortened: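 Human Bub1 catalytic domain (704-1085, His6-tagged, Hi5-expressed, ~200 ng/mL) preincubated with compound 15 min at 22 °C, then reacted 60 min at 22 °C with 10 μM ATP and 1 μM biotinylated peptide substrate, pH 7.5. EDTA stop; TR-FRET 665/620 ratio; IC50 from 4-parameter fit, 11 concentrations in duplicate.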

T1 sequence (O43683 704-1085): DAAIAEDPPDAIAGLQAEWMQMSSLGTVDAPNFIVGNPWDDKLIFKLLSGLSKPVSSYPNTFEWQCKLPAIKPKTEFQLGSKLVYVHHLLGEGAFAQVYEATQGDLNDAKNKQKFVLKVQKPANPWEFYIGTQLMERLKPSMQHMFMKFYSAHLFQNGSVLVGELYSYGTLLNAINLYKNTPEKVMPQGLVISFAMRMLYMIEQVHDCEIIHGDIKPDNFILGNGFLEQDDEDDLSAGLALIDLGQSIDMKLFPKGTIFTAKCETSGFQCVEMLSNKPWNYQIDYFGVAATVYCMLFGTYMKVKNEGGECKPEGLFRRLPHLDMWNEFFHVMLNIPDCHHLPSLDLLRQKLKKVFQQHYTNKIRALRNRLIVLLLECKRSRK

| Structure (SMILES) | IC50 [nM] |
| --- | --- |
| COc1cc(C(=O)Nc2cc(-c3[nH]c4c(c3Nc3ccccc3)C(=O)CN(C(=O)N3CCOCC3)C4)ccn2)ccc1F [Example 260, 4-Fluoro-3-methoxy-N-4-[6-(morpholin-4-ylcarbonyl)-4-oxo-3(phenylamino)-4,5,6,7-tetrahydro-1H-pyrrolo[2,3-c]pyridin-2-yl]pyridin-2-ylbenzamide] | 8 |

same assay, conditions: TR-FRET; ATP 10 μM, peptide substrate 1 μM; 60 min at 22° C.; average or median if tested more than once; read-out: Inhibition of Bub1 kinase IC50

| IC50 [nM] | Structure (SMILES) |
| --- | --- |
| 73 | O=C1CN(C(=O)N2CCOCC2)Cc2[nH]c(-c3ccncc3OCC(F)(F)F)c(Nc3ccccc3)c21 [Example 245, 6-(Morpholin-4-ylcarbonyl)-3-(phenylamino)-2-[3-(2,2,2-trifluoroethoxy)pyridin-4-y]1,5,6,7-tetrahydro-4H-pyrrolo[2,3-c]pyridin-4-one] |
| 319 | CN1CCN(C(=O)N2CC(=O)c3c([nH]c(-c4ccncc4OCC(F)(F)F)c3Nc3ccccc3)C2)CC1 [Example 246, 6-[(4-Methylpiperazin-1-yl)carbonyl]-3-(phenylamino)-2-[3-(2,2,2-trifluoroethoxy)pyridin-4-yl]-1,5,6,7-tetrahydro-4H-pyrrolo[2,3-c]pyridin-4-one] |
| 65 | CC(C)S(=O)(=O)N1CC(=O)c2c([nH]c(-c3ccncc3OCC(F)(F)F)c2Nc2ccccc2)C1 [Example 247, 3-(Phenylamino)-6-(propan-2-ylsulfonyl)-2-[3-(2,2,2-trifluoroethoxy)pyridin-4-yl]-1,5,6,7-tetrahydro-4H-pyrrolo[2,3-c]pyridin-4-one] |
| 5 | COCCOc1cnccc1-c1[nH]c2c(c1Nc1ccccc1)C(=O)CN(C(=O)OC)C2 [Example 248, Methyl 2-[3-(2-methoxyethoxy)pyridin-4-yl]-4-oxo-3-(phenylamino)-1,4,5,7-tetrahydro-6H-pyrrolo[2,3-c]pyridine-6-carboxylate] |
| 5 | CNC(=O)N1CC(=O)c2c([nH]c(-c3ccncc3OCCOC)c2Nc2ccccc2)C1 [Example 249] |
| 9 | COC(=O)N1CC(=O)c2c([nH]c(-c3ccncc3OCC3CC3)c2Nc2ccccc2)C1 [Example 250, Methyl 2-[3-(cyclopropylmethoxy)pyridin-4-yl]-4-oxo-3-(phenylamino)-1,4,5,7-tetrahydro-6H-pyrrolo[2,3-c]pyridine-6-carboxylate] |
| 12 | CNC(=O)N1CC(=O)c2c([nH]c(-c3ccncc3OCC3CC3)c2Nc2ccccc2)C1 [Example 251, 2-[3-(Cyclopropylmethoxy)pyridin-4-yl]-N-methyl-4-oxo-3-(phenylamino)-1,4,5,7-tetrahydro-6H-pyrrolo[2,3-c]pyridine-6-carboxamide] |
| 48 | CN1CCN(C(=O)N2CC(=O)c3c([nH]c(-c4ccncc4OCC4CC4)c3Nc3ccccc3)C2)CC1 [Example 252, 2-[3-(Cyclopropylmethoxy)pyridin-4-yl]-6-[(4-methylpiperazin-1-yl)carbonyl]-3-(phenylamino)-1,5,6,7-tetrahydro-4H-pyrrolo[2,3-c]pyridin-4-one] |
| 42 | COc1cc(C(=O)Nc2cc(-c3[nH]c4c(c3Nc3ccccc3)C(=O)CN(C(=O)OC(C)(C)C)C4)ccn2)ccc1F [Example 253, tert-butyl 2-2-[(4-fluoro-3-methoxybenzoyl)amino]pyridin-4-yl-4-oxo-3-(phenylamino)-1,4,5,7-tetrahydro-6H-pyrrolo[2,3-c]pyridine-6-carboxylate] |
| 4 | CC(=O)Nc1cc(-c2[nH]c3c(c2Nc2ccccc2)C(=O)CN(S(=O)(=O)N(C)C)C3)ccn1 [Example 254, N-4-[6(Dimethylsulfamoyl)-4-oxo-3-(phenylamino)-4,5,6,7-tetrahydro-1H-pyrrolo[2,3-c]pyridin-2-yl]pyridin-2-ylacetamide] |
| 375 | CC(=O)Nc1cc(-c2[nH]c3c(c2Nc2ccccc2)C(=O)CN(C(=O)N2C[C@@H](C)O[C@@H](C)C2)C3)ccn1 [Example 255, N-4-[6-[(2R,6S)-2,6-Dimethylmorpholin-4-yl]carbonyl-4-oxo-3-(phenylamino)-4,5,6,7-tetrahydro-1H-pyrrolo[2,3-c]pyridin-2-yl]pyridin-2-ylacetamide] |
| 936 | COc1cc(C(=O)Nc2cc(-c3c(Nc4ccccc4)c4c(n3C)CN(C(=O)OC(C)(C)C)CC4=O)ccn2)ccc1F [Example 256, tert-Butyl 2-2-[(4-fluoro-3-methoxybenzoyl)amino]pyridin-4-yl-1-methyl-4-oxo-3-(phenylamino)-1,4,5,7-tetrahydro-6H-pyrrolo[2,3-c]pyridine-6-carboxylate] |
| 35 | COc1cc(C(=O)Nc2cc(-c3[nH]c4c(c3Nc3ccccc3)C(=O)CNC4)ccn2)ccc1F [Example 257] |
| 10 | COc1cc(C(=O)Nc2cc(-c3[nH]c4c(c3Nc3ccccc3)C(=O)CN(C(C)=O)C4)ccn2)ccc1F [Example 258] |
| 3 | COc1cc(C(=O)Nc2cc(-c3[nH]c4c(c3Nc3ccccc3)C(=O)CN(S(=O)(=O)N(C)C)C4)ccn2)ccc1F [Example 259, N-4-[6-(Dimethylsulfamoyl)-4-oxo-3-(phenylamino)-4,5,6,7-tetrahydro-1H-pyrrolo[2,3-c]pyridin-2-yl]pyridin-2-yl-4-fluoro-3-methoxybenzamide] |
| 351 | COc1cc(C(=O)Nc2cc(-c3[nH]c4c(c3Nc3ccccc3)C(=O)CN(C(=O)N3C[C@@H](C)O[C@@H](C)C3)C4)ccn2)ccc1F [Example 261, N-4-[6-[(2R,6S)-2,6-Dimethylmorpholin-4-yl]carbonyl-4-oxo-3-(phenylamino)-4,5,6,7-tetrahydro-1H-pyrrolo[2,3-c]pyridin-2-yl]pyridin-2-yl-4-fluoro-3-methoxybenzamide] |
| 8 | COc1cc(C(=O)Nc2cc(-c3[nH]c4c(c3Nc3ccccc3)C(=O)CN(C(=O)N3CCCC3)C4)ccn2)ccc1F [Example 262, 4-Fluoro-3-methoxy-N-4-[4-oxo-3-(phenylamino)-6-(pyrrolidin-1-ylcarbonyl)-4,5,6,7-tetrahydro-1H-pyrrolo[2,3-c]pyridin-2-yl]pyridin-2-ylbenzamide] |
| 38 | Cc1cc(F)ccc1C(=O)Nc1cc(-c2[nH]c3c(c2Nc2ccccc2)C(=O)CN(C(=O)OC(C)(C)C)C3)ccn1 [Example 263, tert-Butyl 2-2-[(4-fluoro-2-methylbenzoyl)amino]pyridin-4-yl-4-oxo-3-(phenylamino)-1,4,5,7-tetrahydro-6H-pyrrolo[2,3-c]pyridine-6-carboxylate] |
| 81 | Cc1cc(F)ccc1C(=O)Nc1cc(-c2[nH]c3c(c2Nc2ccccc2)C(=O)CNC3)ccn1 [Example 264, 4-Fluoro-2-methyl-N-4-[4-oxo-3-(phenylamino)-4,5,6,7-tetrahydro-1H-pyrrolo[2,3-c]pyridin-2-yl]pyridin-2-ylbenzamide] |
| 6 | CC(=O)N1CC(=O)c2c([nH]c(-c3ccnc(NC(=O)c4ccc(F)cc4C)c3)c2Nc2ccccc2)C1 [Example 265, N-4-[6-Acetyl-4-oxo-3-(phenylamino)-4,5,6,7-tetrahydro-1H-pyrrolo[2,3-c]pyridin-2-yl]pyridin-2-yl-4-fluoro-2-methylbenzamide] |
| 72 | COc1ccc(C(=O)Nc2cc(-c3[nH]c4c(c3Nc3ccccc3)C(=O)CN(C(=O)OC(C)(C)C)C4)ccn2)c(C)c1 [Example 266, tert-Butyl 2-2-[(4-methoxy-2-methylbenzoyl)amino]pyridin-4-yl-4-oxo-3-(phenylamino)-1,4,5,7-tetrahydro-6H-pyrrolo[2,3-c]pyridine-6-carboxylate] |
